Structures are written as SMILES.

The term IC50 denotes the concentration at which inhibition is half-maximal.

The first assay concerns RS411 cells. Put plainly: Cell Viability CTG Assay (CellTiter Glo) in RS411 cells. In kind it is cell-based. The settings on record: Homo sapiens, RS4-11, 24 h, duration 1 day. The method in brief:
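Read-out was CellTiter Glo luminescence, taken after 10 min at RT, following 1-4 days of incubation at 37 °C, 5% CO2. Cells were plated at 1000 per well with an 11-point, 3-fold series starting at 10 μM final in 0.2% DMSO. IC50 values are given as letter-code ranges.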
For orientation: Cellular ATP, detected with luciferase, serves as a proxy for viable cell number.
As for `Cn1c(=O)n(C2CCC(=O)NC2=O)c2ccc(CCCCCNC(=O)[C@@H]3CC[C@@H](NC(=O)[C@@H]4NC5(CCC(C)(C)CC5)[C@@]5(C(=O)Nc6cc(Cl)ccc65)[C@H]4c4cccc(Cl)c4F)CO3)cc21` (some centres unmarked) [I-98], the IC50 was < 50 nM. The same measure, in the same setting: the value for `Cn1c(=O)n(C2CCC(=O)NC2=O)c2cccc(CCN3CC4(CCN(C(=O)c5ccc(NC(=O)[C@@H]6NC7(CCCCC7)[C@@]7(C(=O)Nc8cc(Cl)ccc87)[C@H]6c6cccc(Cl)c6F)cc5)CC4)C3)c21` (some centres unmarked) [I-61] was < 50 nM; that for `Cn1c(=O)n(C2CCC(=O)NC2=O)c2ccc(C#CCCN3CCC(NC(=O)[C@@H]4NC5(CCCCC5)[C@@]5(C(=O)Nc6cc(Cl)ccc65)[C@H]4c4cccc(Cl)c4F)CC3)cc21` (some centres unmarked) [I-169] was > 1000 nM; that for `Cc1ncsc1-c1ccc(CNC(=O)[C@@H]2C[C@@H](O)CN2C(=O)[C@@H](NC(=O)COCCOCC2CCN(C[C@H]3CC[C@H](NC(=O)[C@@H]4NC5(CCCCC5)[C@@]5(C(=O)Nc6cc(Cl)ccc65)[C@H]4c4cccc(Cl)c4F)CC3)CC2)C(C)(C)C)cc1` [I-188] was > 1000 nM. Still for that read-out and setting: the value for `CN1[C@@H](C(=O)NC23CCC(C(=O)N4CCC(C#Cc5ccc6c(c5)n(C)c(=O)n6C5CCC(=O)NC5=O)CC4)(CC2)CC3)[C@H](c2cccc(Cl)c2F)[C@]2(C(=O)Nc3cc(Cl)ccc32)C12CCCCC2` (stereo partly drawn) [I-130, (3′R,4'S,5′R)-6″-chloro-4′-(3-chloro-2-fluorophenyl)-N-(4-(4-((1-(2,6-dioxopiperidin-3-yl)-3-methyl-2-oxo-2,3-dihydro-1H-benzo[d]imidazol-5-yl)ethynyl)piperidine-1-carbonyl)bicyclo[2.2.2]octan-1-yl)-1′-methyl-2″-oxodispiro[cyclohexane-1,2′-pyrrolidine-3′,3″-indoline]-5′-carboxamide] was < 50 nM; that for `COc1cc2c(cc1OC(C)C)C(c1ccc(Cl)cc1)N(c1ccc(N(C)CC3CCN(CCCCCCc4cccc5c4n(C)c(=O)n5C4CCC(=O)NC4=O)CC3)cc1)C(=O)C2` (centres unmarked) [I-84, 3-[4-[6-[4-[[4-[1-(4-Chlorophenyl)-7-isopropoxy-6-methoxy-3-oxo-1,4-dihydroisoquinolin-2-yl]-N-methylanilino]methyl]-1-piperidyl]hexyl]-3-methyl-2-oxo-benzimidazol-1-yl]piperidine-2,6-dione] was < 50 nM. Still for that read-out and setting: the value for `CN(C[C@@H]1CN(CC#Cc2ccc3c(c2)n(C)c(=O)n3C2CCC(=O)NC2=O)CCO1)C(=O)c1ccc(NC(=O)[C@@H]2NC3(CCCCC3)[C@@]3(C(=O)Nc4cc(Cl)ccc43)[C@H]2c2cccc(Cl)c2F)cc1` (some centres unmarked) [I-56] was < 50 nM; that for `Cn1c(=O)n(C2CCC(=O)NC2=O)c2ccc(C#CC3CCN(C(=O)C45CCC(NC(=O)[C@@H]6NC7(CCCCC7)[C@@]7(C(=O)Nc8cc(Cl)ccc87)[C@H]6c6cccc(Cl)c6F)(CC4)CC5)CC3)cc21` (some centres unmarked) [I-75] was < 50 nM; that for `Cn1c(=O)n(C2CCC(=O)NC2=O)c2ccc(CCCCCNC(=O)c3ccc(NC(=O)[C@@H]4NC5(CCCCC5)[C@@]5(C(=O)Nc6cc(Cl)ccc65)[C@H]4c4cccc(Cl)c4F)c4c3OCCO4)cc21` (some centres unmarked) [I-163] was < 50 nM.

As for `COc1cc2c(cc1OC(C)C)C(c1ccc(Cl)cc1)N(c1ccc(N(C)C[C@H]3CC[C@H](N(C)CCCCc4ccn5c(N6CCC(=O)NC6=O)cnc5c4)CC3)cc1)C(=O)C2` (some centres unmarked) [I-212], the IC50 was > 1000 nM. Same read-out and setting: in the case of `Cn1c(=O)n(C2CCC(=O)NC2=O)c2ccc(N3CCN(C[C@H]4CC[C@H](NC(=O)[C@@H]5NC6(CCC(C)(C)CC6)[C@@]6(C(=O)Nc7cc(Cl)ccc76)[C@H]5c5ccnc(Cl)c5F)CC4)CC3)cc21` (some centres unmarked) [I-204] it was < 50 nM; in that of `Cn1c(=O)n(C2CCC(=O)NC2=O)c2cccc(CCN3CC4(CCN(C[C@H]5CC[C@H](NC(=O)[C@@H]6NC7(CCCCC7)[C@@]7(C(=O)Nc8cc(Cl)ccc87)[C@H]6c6cccc(Cl)c6F)CC5)CC4)C3)c21` (some centres unmarked) [I-159], < 50 nM; in that of `COc1cc2c(cc1OC(C)C)C(c1ccc(Cl)cc1)N(c1ccc(N(C)C[C@H]3CC[C@H](N4CCC(CCc5ccc6c(c5)n(C)c(=O)n6C5CCC(=O)NC5=O)CC4)CC3)cc1)C(=O)C2` (some centres unmarked) [I-194], < 50 nM. Same read-out and setting: in the case of `COc1cc2c(cc1OC(C)C)[C@H](c1ccc(Cl)cc1)N(c1ccc(N(C)CC3CCN(C(=O)CCCCCc4ccc5c(c4)n(C)c(=O)n5C4CCC(=O)NC4=O)CC3)cc1)C(=O)C2` (some centres unmarked) [I-179] it was < 50 nM; in that of `Cn1c(=O)n(C2CCC(=O)NC2=O)c2ccc(C#CC3CCN(C(=O)c4ccc(NC(=O)[C@@H]5NC6(CCC(C)(C)CC6)[C@@]6(C(=O)Nc7cc(Cl)ccc76)[C@H]5c5cccc(Cl)c5F)cc4)CC3)cc21` (some centres unmarked) [I-76], 100 to 500 nM; in that of `Cn1c(=O)n(C2CCC(=O)NC2=O)c2cccc(C#CC3CCN(C[C@H]4CC[C@H](NC(=O)[C@@H]5NC6(CCC(C)(C)CC6)[C@@]6(C(=O)Nc7cc(Cl)ccc76)[C@H]5c5ccnc(Cl)c5F)CC4)CC3)c21` (some centres unmarked) [I-148], < 50 nM. With `Cn1c(=O)n(C2CCC(=O)NC2=O)c2ccc(C3CCN(C[C@H]4CC[C@H](NC(=O)[C@@H]5NC6(CCCCC6)[C@@]6(C(=O)Nc7cc(Cl)ccc76)[C@H]5c5cccc(Cl)c5F)CC4)CC3)cc21` (some centres unmarked) [I-186], the 50% inhibitory concentration (IC50) was < 50 nM. As for `Cn1c(=O)n(C2CCC(=O)NC2=O)c2ccc(CCCCCNC(=O)c3ccc(NC(=O)[C@@H]4NC5(CCCCC5)[C@@]5(C(=O)Nc6cc(Cl)ccc65)[C@H]4c4cccc(Cl)c4F)cc3)cc21` (some centres unmarked) [I-97], the half-inhibitory concentration (IC50) was < 50 nM. Same read-out and setting: in the case of `Cn1c(=O)n(C2CCC(=O)NC2=O)c2cccc(C#CC3CCN(C[C@H]4CC[C@H](CNC(=O)[C@@H]5NC6(CCCCC6)[C@@]6(C(=O)Nc7cc(Cl)ccc76)[C@H]5c5cccc(Cl)c5F)CC4)CC3)c21` (some centres unmarked) [I-140] it was 500 to 1000 nM; in that of `Cn1c(=O)n(C2CCC(=O)NC2=O)c2ccc(CCN3CC4(CCN(C[C@H]5CC[C@H](NC(=O)[C@@H]6NC7(CCCCC7)[C@@]7(C(=O)Nc8cc(Cl)ccc87)[C@H]6c6cccc(Cl)c6F)CC5)CC4)C3)cc21` (some centres unmarked) [I-154], < 50 nM. Turning to `CC(C)(C)C[C@@H]1N[C@@H](C(=O)N[C@H]2CC[C@H](CNCCCC#Cc3ccc4c(N5CCC(=O)NC5=O)cncc4c3)CC2)[C@H](c2cccc(Cl)c2F)[C@@]1(C#N)c1ccc(Cl)cc1F` [I-199], the 50% inhibitory concentration (IC50) is > 1000 nM. The same measure, in the same setting: the value for `COc1cc2c(cc1OC(C)C)C(c1ccc(Cl)cc1)N(c1ccc(N(C)C[C@H]3CC[C@H](N(C)CCCCCc4ccc5c(c4)n(C)c(=O)n5C4CCC(=O)NC4=O)CC3)cc1)C(=O)C2` (some centres unmarked) [I-85] was < 50 nM; that for `Cn1c(=O)n(C2CCC(=O)NC2=O)c2cccc(N3CCC4(CCN(C(=O)c5ccc(NC(=O)[C@@H]6NC7(CCCCC7)[C@@]7(C(=O)Nc8cc(Cl)ccc87)[C@H]6c6cccc(Cl)c6F)cc5)CC4)CC3)c21` (some centres unmarked) [I-55] was 50 to 100 nM; that for `Cn1c(=O)n(C2CCC(=O)NC2=O)c2cccc(NCC3CC4(C3)CN(C(=O)c3ccc(NC(=O)[C@@H]5NC6(CCCCC6)[C@@]6(C(=O)Nc7cc(Cl)ccc76)[C@H]5c5cccc(Cl)c5F)cc3)C4)c21` (some centres unmarked) [I-59] was < 50 nM. In the case of `COc1cc2c(cc1OC(C)C)C(c1ccc(Cl)cc1)N(c1ccc(N(C)C[C@H]3CC[C@H](NCC(=O)NCCCCCc4ccc5c(c4)n(C)c(=O)n5C4CCC(=O)NC4=O)CC3)cc1)C(=O)C2` (some centres unmarked) [I-92, 2-[[4-[[4-[1-(4-Chlorophenyl)-7-isopropoxy-6-methoxy-3-oxo-1,4-dihydroisoquinolin-2-yl]-N-methyl-anilino]methyl]cyclohexyl]amino]-N-[5-[1-(2,6-dioxo-3-piperidyl)-3-methyl-2-oxo-benzimidazol-5-yl]pentyl]acetamide], the half-inhibitory concentration (IC50) was < 50 nM.

For `Cn1c(=O)n(C2CCC(=O)NC2=O)c2ccc(CCN3CCN(C(=O)[C@H]4CC[C@H](NC(=O)[C@@H]5NC6(CCCCC6)[C@@]6(C(=O)Nc7cc(Cl)ccc76)[C@H]5c5cccc(Cl)c5F)CC4)CC3)cc21` (some centres unmarked) [I-180], the IC50 was < 50 nM. Still for that read-out and setting: in the case of `Cn1c(=O)n(C2CCC(=O)NC2=O)c2cccc(C3CCN(C[C@H]4CC[C@H](NC(=O)[C@@H]5NC6(CCC(C)(C)CC6)[C@@]6(C(=O)Nc7cc(Cl)ccc76)[C@H]5c5cccc(Cl)c5F)CC4)CC3)c21` (some centres unmarked) [I-103] it was < 50 nM; in that of `Cn1c(=O)n(C2CCC(=O)NC2=O)c2ccc(C3CCN(C(=O)c4ccc(NC(=O)[C@@H]5NC6(CCCCC6)[C@@]6(C(=O)Nc7cc(Cl)ccc76)[C@H]5c5cccc(Cl)c5F)cc4)CC3)cc21` (some centres unmarked) [I-176], < 50 nM.

Still in this assay, the particulars now being: Homo sapiens, RS4-11, 96 h, duration 4 days.
`CCOc1cc(C(C)(C)C)ccc1C1=N[C@@H](c2ccc(Cl)cc2)[C@@H](c2ccc(Cl)cc2)N1C(=O)N1CCN(CC#Cc2cccc3c2CN(C2CCC(=O)NC2=O)C3=O)CC1` (stereo partly drawn) [I-4, 3-[4-[3-[4-[(4S,5R)-2-(4-tert-butyl-2-ethoxy-phenyl)-4,5-bis(4-chlorophenyl)-4,5-dihydroimidazole-1-carbonyl]piperazin-1-yl]prop-1-ynyl]-1-oxo-isoindolin-2-yl]piperidine-2,6-dione] showed a 50% inhibitory concentration (IC50) of 50 to 100 nM. The same measure, in the same setting: the value for `Cc1ncsc1-c1ccc(CNC(=O)[C@@H]2C[C@@H](O)CN2C(=O)[C@@H](NC(=O)CCCNC(=O)c2ccc(NC(=O)[C@@H]3NC4(CCCCC4)[C@@]4(C(=O)Nc5cc(Cl)ccc54)[C@H]3c3cccc(Cl)c3F)cc2)C(C)(C)C)cc1` [I-13] was 500 to 1000 nM; that for `COc1cc(C(=O)NCCOCCOCCNC(=O)c2ccc(NC(=O)[C@@H]3N[C@@H](CC(C)(C)C)[C@](C#N)(c4ccc(Cl)cc4F)[C@H]3c3cccc(Cl)c3F)c(OC)c2)ccc1NC(=O)[C@@H]1N[C@@H](CC(C)(C)C)[C@](C#N)(c2ccc(Cl)cc2F)[C@H]1c1cccc(Cl)c1F` [I-33] was > 1000 nM. For `COc1cc(C(=O)NCCCCCCCC(=O)N[C@H](C(=O)N2C[C@H](O)C[C@H]2C(=O)NCc2ccc(-c3scnc3C)cc2)C(C)(C)C)ccc1NC(=O)[C@@H]1N[C@@H](CC(C)(C)C)[C@](C#N)(c2ccc(Cl)cc2F)[C@H]1c1cccc(Cl)c1F` [I-19], the IC50 was < 50 nM.

The values above are taken from US11932624B2, “MDM2 degraders and uses thereof” (Kymera Therapeutics, Inc., priority 2020, dated 2024).
